Results taken from the supplement of paper PMC5579334.

What was measured:
ST8814 [1] = assay: relative IC50 (inflection point of fitted dose-response curve, CellTox-Green cytotoxicity, 72 h; top asymptote may be below 50%); higher = less potent
In short: (§1)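 MPNST cell lines and primary human Schwann cells were incubated 72 h at 37 °C in 384-well plates holding five 10-fold compound dilutions. CellTox-Green was added before seeding at a final 1:1000 dilution and reported fluorescence from DNA released by disrupted cells. Signals were scaled to vehicle and positive-control wells, and cultures failing plate quality control were dropped. Drug sensitivity score and relative IC50 come from four-parameter logistic fits, with IC50 censored at the top concentration.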

HSC2 [2] = assay: as above
In short: as §1

HSC1 [3] = assay: as above
In short: as §1

STS26T [4] = assay: relative IC50 (inflection point of fitted dose-response curve, CellTiter-Glo viability, 72 h; top asymptote may be below 50% inhibition); higher = less potent
In short: (§2)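 Viability was scored by CellTiter-Glo ATP luminescence, scaled from vehicle to positive-control wells, with duplicates averaged where present. The cells, MPNST lines and primary human Schwann cells at 750–1000 per well, sat 72 h at 37 °C, 5% CO2, in 384-well plates preprinted with each compound at five concentrations in 10-fold steps. Four-parameter logistic fits were run on the data. These fits give drug sensitivity score and relative IC50 censored at the top concentration, and percent inhibition is reported at the top concentration.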

ST8814 [5] = assay: as above
In short: as §2

S462 = assay: as above
In short: as §2

HSC1 [6] = assay: as above
In short: as §2

S1507-2 = assay: as above
In short: as §2

STS26T [7] = assay: relative IC50 (inflection point of fitted dose-response curve, CellTox-Green cytotoxicity, 72 h; top asymptote may be below 50%); higher = less potent
In short: as §1

HS-PSS [8] = assay: as above
In short: as §1

YST-1 = assay: relative IC50 (inflection point of fitted dose-response curve, CellTiter-Glo viability, 72 h; top asymptote may be below 50% inhibition); higher = less potent
In short: as §2

HS-Sch-2 = assay: as above
In short: as §2

HS-PSS [9] = assay: as above
In short: as §2

HSC2 [10] = assay: as above
In short: as §2

Structure (SMILES)	relative IC50 (ST8814 [1])	relative IC50 (HSC2 [2])	relative IC50 (HSC1 [3])	relative IC50 (STS26T [4])	relative IC50 (ST8814 [5])	relative IC50 (S462)	relative IC50 (HSC1 [6])	relative IC50 (S1507-2)	relative IC50 (STS26T [7])	relative IC50 (HS-PSS [8])	relative IC50 (YST-1)	relative IC50 (HS-Sch-2)	relative IC50 (HS-PSS [9])	relative IC50 (HSC2 [10])
NC(=O)c1cccc2cn(-c3ccc(C4CCCNC4)cc3)nc12 (stereo not drawn) [MK-4827]	3040 nM	> 10000 nM	> 10000 nM	1700 nM	1650 nM	1400 nM	2110 nM	1680 nM						
Clc1ccc(C(c2ccccc2Cl)C(Cl)Cl)cc1 (stereo not drawn) [Mitotane]	> 10000 nM	> 10000 nM	> 10000 nM	> 10000 nM		> 10000 nM	> 10000 nM	> 10000 nM	> 10000 nM	> 10000 nM	> 10000 nM	> 10000 nM	> 10000 nM	> 10000 nM
N#CCNC(=O)c1ccc(-c2ccnc(Nc3ccc(N4CCOCC4)cc3)n2)cc1 [Momelotinib]	> 10000 nM	3220 nM	3370 nM	3110 nM	1970 nM	2740 nM	1410 nM	3760 nM		> 10000 nM	1300 nM	1640 nM	2500 nM	1330 nM
c1cc(CN2CCCNCCNCCCNCC2)ccc1CN1CCCNCCNCCCNCC1 [Plerixafor aq]	> 10000 nM	2810 nM	> 10000 nM	> 10000 nM	> 10000 nM	> 10000 nM	> 10000 nM	> 10000 nM						> 10000 nM
Cc1cnc(NC(=O)Nc2cc(Br)c(C)cc2OC[C@@H]2CNCCO2)cn1 [Rabusertib]	> 1000 nM	> 1000 nM		189 nM	> 1000 nM	319 nM		236 nM	330 nM	> 1000 nM	242 nM	302 nM		
CC(C)(C)Cn1c(N)nc2ccc(-c3[nH]c(C(C)(C)C)nc3-c3ccc(F)cc3)nc21 [Ralimetinib]	> 10000 nM	> 10000 nM	> 10000 nM	2920 nM	1560 nM		2330 nM	2140 nM	> 10000 nM	> 10000 nM	115 nM	3330 nM	4090 nM	474 nM
O=C(c1ccc(OCCN2CCCCC2)cc1)c1c(-c2ccc(O)cc2)sc2cc(O)ccc12 [Raloxifene]	3430 nM	> 10000 nM	> 10000 nM	3280 nM	2940 nM		3100 nM	3100 nM	3800 nM		1820 nM	1810 nM	1130 nM	1840 nM
CNCc1ccc(-c2[nH]c3cc(F)cc4c3c2CCNC4=O)cc1 [Rucaparib]	> 10000 nM	> 10000 nM	> 10000 nM	> 10000 nM	> 10000 nM		> 10000 nM	> 10000 nM	> 10000 nM	> 10000 nM	447 nM		1040 nM	> 10000 nM
CN(N=O)C(=O)N[C@@H]1[C@@H](O)[C@H](O)[C@@H](CO)O[C@@H]1O [Streptozocin]	> 10000 nM	> 10000 nM	> 10000 nM	> 10000 nM		> 10000 nM	> 10000 nM	> 10000 nM	> 10000 nM	> 10000 nM				> 10000 nM
Cn1c(=O)c(F)c(Nc2ccc(I)cc2F)c2c(=O)n(C[C@@H](O)CO)cnc21 [TAK-733]	218 nM	> 1000 nM	> 1000 nM	25.1 nM	87.9 nM	58.5 nM	97.3 nM	85 nM		> 1000 nM		152 nM	162 nM	90.6 nM
COc1cc(Nc2ncc(F)c(Nc3ccc4c(n3)NC(=O)C(C)(C)O4)n2)cc(OC)c1OC [Tamatinib]			> 10000 nM			> 10000 nM	665 nM	> 10000 nM		> 10000 nM	> 10000 nM		> 10000 nM	1590 nM
Nc1nc2[nH]cnc2c(=S)[nH]1 [Thioguanine]		> 10000 nM	> 10000 nM	717 nM	642 nM	1200 nM		2270 nM	2920 nM	> 10000 nM	1370 nM	1120 nM	1450 nM	> 10000 nM
COc1cc2c(NC3CCN(C(C)C)CC3)nc(C3CCCCC3)nc2cc1OCCCN1CCCC1 [UNC0638]	2230 nM	> 10000 nM		3500 nM	2640 nM	2730 nM		1720 nM	3390 nM	2540 nM	2870 nM	2270 nM	1740 nM	
Cc1cnc(Nc2ccc(F)cc2Cl)nc1-c1c[nH]c(C(=O)N[C@H](CO)c2cccc(Cl)c2)c1 [VX-11E]	816 nM	651 nM	874 nM	830 nM	905 nM		750 nM	966 nM	896 nM	> 2500 nM	> 2500 nM	367 nM	756 nM	696 nM
Oc1nc(-c2ccc(C(F)(F)F)cc2)nc2c1CSCC2 [XAV-939]	> 10000 nM	> 10000 nM	> 10000 nM		> 10000 nM	> 10000 nM	286 nM	1580 nM		> 10000 nM		> 10000 nM		314 nM
FC(F)c1nc2ccccc2n1-c1nc(N2CCOCC2)nc(N2CCOCC2)n1 [ZSTK474]	> 10000 nM		> 10000 nM	244 nM	658 nM	582 nM	876 nM	251 nM		> 10000 nM	248 nM	1050 nM	831 nM	692 nM
